Values of other authors in patent US20240226071A9, “SUSTAINED RELEASE OSMOTIC-CONTROLLED PHARMACEUTICAL COMPOSITION AND PREPARATION METHOD THEREOF” (Anxo Pharmaceutical Co., Ltd., priority 2022, published 2024).

solubility in water: lower than 0.1 mg/mL
SMILES: O=C1[C@@H]2[C@H]3CC[C@H](C3)[C@@H]2C(=O)N1C[C@@H]1CCCC[C@H]1CN1CCN(c2nsc3ccccc23)CC1 [lurasidone]
